Assays:
[1] = bioavailability after particle size reduction; type: in vivo
Procedure: (§1) Unfortunately, (2R)-2-[[(4-chlorophenyl)sulfonyl][[2-fluoro-4-(1,2,4-oxadiazol-3-yl)phenyl]methyl]amino]-5,5,5-trifluoropentanamide has poor aqueous solubility that is often characterized as <1 ug/mL at about room temperature. […] Thus, it now appears that in order to provide optimal exposure of the API, an amorphous (non-crystalline) form of the active compound should be provided.

aqueous solubility = type: physicochemical; conditions: aqueous medium; at about room temperature
Procedure: as §1

[2] = solubility of the compound in PVP-VA; type: physicochemical; conditions: at a temperature of about 100° C.
Procedure: In order to prepare the compositions hereinabove described, various preparation means available to the skilled artisan may be utilized. It is preferred that the compositions containing the active compound and PVP-VA be prepared by the methods of hot-melt extrusion or spray-drying, with hot-melt extrusion being more preferred. A processing temperature of about 150-160° C. is preferred for hot-melt extrusion processing of the active compound using apparatus available in the art.

NC(=O)[C@@H](CCC(F)(F)F)N(Cc1ccc(-c2ncon2)cc1F)S(=O)(=O)c1ccc(Cl)cc1 [(2R)-2-[[(4-chlorophenyl)sulfonyl][[2-fluoro-4-(1,2,4-oxadiazol-3-yl)phenyl]methyl]amino]-5,5,5-trifluoropentanamide]
improvement in bioavailability by particle size reduction [1]: no appreciable improvement
solubility (aqueous solubility): < 1 µg/mL
soluble in PVP-VA [2]: less than 5%

Reference: patent US20100261768A1, “Bioavailable Compositions of Amorphous Alpha-(N-Sulfonamido)Acetamide Compound” (Bristol-Myers Squibb Company, priority 2009, published 2010)
